# Laboratory results as given in patent US20100119530A1, “Regulation of TLR Signaling by Complement” (priority 2007, published 2010).
# T1: C3a receptor (C3aR) (Mus musculus, UniProt O09047)
# T1 construct: Effect of a C3a receptor antagonist (C3aRa) and a C5a receptor antagonist (C5aRa) on LPS-induced plasma IL-6 levels in DAF^−/− mice; from tissue; host or cells: living C57BL/6 DAF-/- mice (whole animal)
# T1 sequence (O09047 1-477): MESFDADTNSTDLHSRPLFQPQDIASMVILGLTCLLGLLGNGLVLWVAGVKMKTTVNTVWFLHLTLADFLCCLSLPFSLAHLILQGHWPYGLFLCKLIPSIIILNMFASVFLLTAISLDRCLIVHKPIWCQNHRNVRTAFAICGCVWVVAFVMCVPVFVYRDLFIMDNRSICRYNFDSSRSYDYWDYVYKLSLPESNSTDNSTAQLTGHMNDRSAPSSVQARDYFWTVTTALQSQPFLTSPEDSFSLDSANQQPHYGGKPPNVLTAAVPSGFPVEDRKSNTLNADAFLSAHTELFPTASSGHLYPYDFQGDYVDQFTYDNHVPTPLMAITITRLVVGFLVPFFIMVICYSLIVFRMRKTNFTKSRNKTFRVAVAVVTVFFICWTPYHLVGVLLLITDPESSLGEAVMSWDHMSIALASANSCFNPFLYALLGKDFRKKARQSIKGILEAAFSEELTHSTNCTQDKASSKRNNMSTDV
# T2: C5a receptor (C5aR) (Mus musculus, UniProt P30993)
# T2 construct: from tissue; host or cells: living mice (A4: C57BL/6 DAF-/-; A12: wild-type, with C5aR-/- mice as control)
# T2 sequence (P30993 1-351): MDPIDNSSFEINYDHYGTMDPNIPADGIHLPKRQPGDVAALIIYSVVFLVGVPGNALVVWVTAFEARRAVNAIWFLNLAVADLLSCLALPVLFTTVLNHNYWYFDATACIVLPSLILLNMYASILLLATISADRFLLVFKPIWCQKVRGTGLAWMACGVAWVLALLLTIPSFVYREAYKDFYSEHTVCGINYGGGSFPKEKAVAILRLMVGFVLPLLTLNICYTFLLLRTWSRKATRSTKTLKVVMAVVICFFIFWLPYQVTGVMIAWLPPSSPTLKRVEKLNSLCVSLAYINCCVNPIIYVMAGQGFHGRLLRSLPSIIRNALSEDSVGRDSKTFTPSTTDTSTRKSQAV
# T3: C5aR (Mus musculus, UniProt P30993)
# T3 construct: from tissue; host or cells: living mice (A4: C57BL/6 DAF-/-; A12: wild-type, with C5aR-/- mice as control)
# T3 sequence (P30993 1-351): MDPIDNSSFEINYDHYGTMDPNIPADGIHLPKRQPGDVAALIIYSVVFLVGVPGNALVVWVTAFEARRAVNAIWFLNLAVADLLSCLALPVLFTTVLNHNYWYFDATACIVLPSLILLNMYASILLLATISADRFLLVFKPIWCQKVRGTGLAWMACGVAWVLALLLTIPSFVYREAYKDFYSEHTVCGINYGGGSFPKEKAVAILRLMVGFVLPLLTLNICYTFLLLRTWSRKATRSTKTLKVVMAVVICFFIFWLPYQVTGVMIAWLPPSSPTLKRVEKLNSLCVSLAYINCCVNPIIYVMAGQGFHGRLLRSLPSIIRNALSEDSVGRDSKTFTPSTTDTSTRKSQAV
# What was measured:
# C3a receptor (C3aR) = target: T1, C3a receptor (C3aR); assay: LPS-induced plasma IL-6 in DAF−/− mice treated with C3a receptor antagonist; type: in vivo; details: 30 mg/kg i.p. 30 minutes before LPS
# Method: (§1) Mice were injected with the following TLR ligands: LPS (20 mg/kg in PBS, i.p.), zymosan (1 g/kg in 0.9% saline, i.p.), CpG (20 mg/kg in PBS, i.p.). In some experiments, mice were also treated with CVF (15 U/mouse in saline, i.p.), SB290157 (30 mg/kg in 20% polyethylene glycol 400 in saline, i.p.), AcPhe (50 μg/mouse in PBS, i.p.). EDTA (20 mM) anti-coagulated blood samples were collected from the tail vein or vena cava. Plasma was prepared by centrifugation at 1000×g for 15 min at 4° C. and stored as small aliquots at −80° C.
# C5a receptor (C5aR) = target: T2, C5a receptor (C5aR); assay: LPS-induced plasma IL-6 in DAF−/− mice treated with C5a receptor antagonist; type: in vivo; details: 50 μg/mouse i.p. 30 minutes before LPS
# Method: as §1
# TLR2/6 signaling = assay: Plasma cytokine ELISA in mice after zymosan or zymosan/CVF treatment; type: in vivo; details: wild-type mice co-treated with zymosan and CVF, 3 hours
# Method: as §1
# [1] = system: LPS-induced cytokine production; assay: Serum cytokine concentrations in mice treated with TLR and/or complement activators; type: in vivo; details: mice co-treated with LPS and CVF
# Method: A set of experiment was conducted to measure serum concentrations of cytokines in mice untreated (NT) or treated with TLR and/or complement activators. […] On the other hand, CVF reduced LPS-induced IL-12 production (FIG. 8). Thus, the effect of CVF on LPS-induced cytokine production is dependent on complement C3 and C5aR but not C3aR signaling.
# C5aR [2] = target: T3, C5aR; assay: Synergistic effect of C5a with LPS on serum IL-6 in mice; type: in vivo
# Method: (§2) Next, the Synergistic effect of C5a with LPS in augmenting IL-6 production was tested. Instead of using the complement activator CVF, the complement activation product C5a was directly tested for its activity to synergize with LPS in IL-6 production. […] CVF treatment by itself has no effect on IL-6 production. Thus, the synergistic activity of C5a required C5aR as such an effect was not observed in C5aR^−/− mice (FIG. 10).
# naive CD4 T cells = assay: Th-17 differentiation of purified naive CD4 T cells (anti-CD3/CD28) with cytokines or mouse sera, FACS; type: cell-based, mice; details: for Th-17 differentiation driven by serum of mice treated with the substance alone: naive CD4 T cells from wild-type mice, plate-bound anti-CD3 and CD28; for Effect of co-treatment on Th-17 differentiation driven by serum of LPS-treated mice: serum of mice co-treated with LPS and the substance; for Th-17 differentiation, cytokine alone: cells treated with the cytokine alone
# From the text: To test whether the CVF-augmented inflammatory cytokine production promotes Th-17 differentiation, purified naive CD4 T cells from wild-type mice were stimulated in vitro with plate-bound anti-CD3 and CD28 in the presence of specific cytokines or sera of control (naive mouse) or LPS-, CVF-treated mice. […] The augmenting effect of CVF on LPS-dependent Th-17 differentiation required C3 and C5aR but not C3aR.
# The ability of C5a-induced augmentation of serum inflammatory cytokine production to promote Th-17 differentiation was assessed. Purified naive CD4 T cells from wild-type mice were stimulated in vitro with plate-bound anti-CD3 and CD28 in the presence of specific cytokines or sera of control (naive mouse) or LPS-, C5a-treated mice. […] Treatment of the cells with IL-6 alone or TGF-β alone had no effect on Th-17 differentiation. […] Thus the augmenting effect of C5a on LPS-dependent Th-17 differentiation required C5aR. These findings indicate that complement activation products, particularly C5a, synergize with the TLR activation pathway to augment inflammatory cytokine production. The complement system, through interaction with TLR, augments Th-17 differentiation and therefore plays a role in autoimmune tissue injury. FIGS. 8-11 provide evidence for this conclusion. Thus, inhibiting complement activation is a therapeutic approach for treating Th-17 T cell mediated autoimmune diseases such as multiple sclerosis, Lupus, inflammatory bowel disease, GvHD and transplant rejection.
# TLR9 = assay: Plasma cytokine ELISA in mice after CpG, CVF or CpG/CVF treatment; type: in vivo; details: wild-type mice, CVF co-treatment with CpG
# Method: as §1
# TLR4 signaling = assay: Plasma cytokine ELISA in mice after LPS, CVF or LPS/CVF treatment; type: in vivo; details: 3 hours; for Reduction of LPS-induced IL-12p40 by CVF treatment: LPS/CVF vs LPS
# Method: as §1
# [3] = system: C3 activation fragments (C3b/iC3b/C3c); assay: Complement activation assay (sandwich ELISA of plasma C3 activation fragments); type: in vivo; details: plasma samples of CpG-treated mice
# Method: Levels of C3 activation fragments (C3b/iC3b/C3c) in plasma were measured by a sandwich ELISA. For quantification purposes, 1/500 serial dilutions of CVF-activated WT mouse plasma (prepared by adding 2.5 μg (1.2 units) of CVF to 50 μl plasma and incubating for 1 h at 37° C.) were used as a reference, and complement activation in all testing samples was normalized to this reference sample.
# [4] = Measurement of plasma LPS levels (Pyrochrome Kit) after LPS injection; type: in vivo, mice; details: 3 hours after LPS injection (20 mg/kg i.p.), n=12
# Method: as §1
# Plasma LPS levels were determined using the Pyrochrome Kit from Associates of CAPE COD Incorporated (East Falmouth, Mass.). Plasma samples were treated at 70° C. for 10 minutes before assays to heat-inactivate serine proteases. Levels were expressed as units/ml of endotoxin.
# C5aR [5] = assay: Synergistic effect of C5a with LPS on serum IL-6 in mice; type: in vivo; details: C5aR−/− mice
# Method: as §2
# [6] = system: NF-kB luciferase reporter gene in RAW264.7 cells; assay: NF-kB luciferase reporter gene assay and TNF-α ELISA in transfected RAW 264.7 cells; type: cell-based, murine; details: transfected RAW264.7 cells
# From the text: RAW 264.7 cells were co-transfected with NF-kB Luc (Clontech, Palo Alto, Calif.), human C5aR in pcDNA3 (UMA cDNA resource center, Rolla, Mo.) and the Rellina control vector (Promega, Madison, Wis.) using the Amaxa Nucleofector apparatus (Amaxa Biosystems, Germany). The RAW 264.7 cells expressed detectible levels of endogenous C5aR as assessed by FACS and RT-PCR. After transfection, they also became weakly positive for human C5aR as assessed by FACS. […] Cell culture supernatants were collected for IL-6 and TNF-α assays by ELISA. All assays were performed in triplicates.
# [7] = wild-type mice, CVF co-treatment with LPS
# [8] = wild-type mice, CVF treatment alone
molecule,measurement,setting,value
NC(N)=NCCC[C@H](NC(=O)COCC(c1ccccc1)c1ccccc1)C(=O)O [SB 290157],Effect on the increase in LPS-induced IL-6 production,C3a receptor (C3aR),significantly (p<0.001) attenuated
AcPhe,Effect on the increase in LPS-induced IL-6 production,C5a receptor (C5aR),totally blocked
Cobra venom factor [CVF],Effect on zymosan-induced IL-6 production,TLR2/6 signaling,Markedly increased
same,Effect on zymosan-induced IL-12p40 production,TLR2/6 signaling,decreased
same,Effect on LPS-induced IL-12 production,[1],reduced
same,Effect on LPS-induced serum IL-1β,[1],augmented
same,Effect on LPS-induced serum IL-6,[1],augmented
same,Effect on LPS-induced serum TNF-α,[1],augmented
same,Serum IL-6 level,"C5aR [2]; mice co-treated with LPS, compared with LPS alone",greatly elevated
same,Effect on IL-6 production,"C5aR [2]; treatment by itself, without LPS",no effect
same,Th-17 differentiation driven by serum of mice treated with the substance alone,naive CD4 T cells,unable to drive Th-17 differentiation
same,Effect of co-treatment on Th-17 differentiation driven by serum of LPS-treated mice,naive CD4 T cells,strongly augmented
same,Effect on CpG-induced IL-1β production,TLR9,no significant impact
same,Effect on CpG-induced TNF-α production,TLR9,no significant impact
same,Effect on CpG-induced IL-6 production,TLR9; 3 hours,no significant impact
same,Effect on CpG-induced IL-12p40 production,TLR9; 3 hours,markedly suppressed
same,Reduction of LPS-induced IL-12p40 by CVF treatment,TLR4 signaling; IL-10−/− mice,22%
same,Plasma IL-10 level,TLR4 signaling; LPS/CVF-treated wild-type mice compared with LPS- or CVF-treated wild-type mice,strikingly elevated
same,Effect on LPS-induced plasma IL-6,TLR4 signaling; [7],greatly increased
same,Effect on LPS-induced plasma IL-12p40,TLR4 signaling; [7],decreased
same,Effect on IL-6 production,TLR4 signaling; [8],negligible effect
same,Effect on IL-12p40 production,TLR4 signaling; [8],negligible effect
same,Reduction of LPS-induced IL-12p40 by CVF treatment,TLR4 signaling; wild-type mice,87%
CpG 1826 (5′-TCCATGACGTFCCTGACGTT-3′),Complement activation in plasma,[3],detectable complement activation
TGF-β,"Th-17 differentiation, cytokine alone",naive CD4 T cells,no effect
lipopolysaccharide [LPS],Plasma LPS concentration,[4]; DAF−/− mice,1200±307 EU/ml
same,Plasma LPS concentration,[4]; wild-type mice,925±413 EU/ml
same,Th-17 differentiation driven by serum of mice treated with the substance alone,naive CD4 T cells,active in driving Th-17 differentiation
"IL-6: cytokine added to naive CD4 T cell cultures to drive Th-17 differentiation (protein, UniProt P08505 25-211, looked up) Interleukin-6: FPTSQVRRGDFTEDTTPNRPVYTTSQVGGLITHVLWEIVEMRKELCNGNSDCMNNDDALAENNLKLPEIQRNDGCYQTGYNQEICLLKISSGLLEYHSYLEYMKNNLKDNKKDKARVLQRDTETLIHIFNQEVKDLHKIVLPTPISNALLTDKLESQKEWLRTKTIQFILKSLEEFLKVTLRSTRQT",Th-17 differentiation in the presence of TGF-β,naive CD4 T cells; IL-6 in the presence of TGF-β,differentiated into Th-17 cells
same,"Th-17 differentiation, cytokine alone",naive CD4 T cells,no effect
"C5a: recombinant human C5a from Sigma-Aldrich; complement activation product, anaphylatoxin (protein, UniProt P01031 678-751, looked up, C5a anaphylatoxin) C5a anaphylatoxin: TLQKKIEEIAAKYKHSVVKKCCYDGACVNNDETCEQRAARISLGPRCIKAFTECCVVASQLRANISHKDMQLGR",Synergistic effect with LPS on IL-6 production,C5aR [5],not observed
same,Secretion of endogenous TNF-α,[6]; C5a (50 nM) with LPS (1000 ng/ml) per FIG. 4D legend,synergized with LPS
same,Secretion of endogenous TNF-α,[6]; C5a alone,negligible effect on its own
same,Th-17 differentiation driven by serum of mice treated with the substance alone,naive CD4 T cells,unable to drive Th-17 differentiation
same,Effect of co-treatment on Th-17 differentiation driven by serum of LPS-treated mice,naive CD4 T cells,strongly augmented
